Data set [1] has as its system Methicillin-sensitive Staphylococcus aureus (MSSA) CGMCC 1.89. As to the kind of experiment: Inhibition-zone antimicrobial assay. It is filed as cell-based. To be noted: 1 nmol/well.
In data set [2] the test system is S15 DNA (15-bp fragment derived from the MRE motif CES11D1). As to the kind of experiment: Electrophoretic mobility shift assay (EMSA). Format: binding. To be noted: 5 µM annealed double strand S15, DvirARP 2, 4 or 8 µM, room temperature 20 min, 6% native polyacrylamide, ethidium bromide staining. For orientation: A gel shift assay detects complexes by their altered migration in electrophoresis.

Data set [3] in a line: Variable temperature CD spectroscopy. It is filed as physicochemical. To be noted: 10 to 65 °C, oxidized product, 5 mM PB pH 7.0. The protocol: For CD analysis, a peptide sample was dissolved in 5 mM phosphate buffer (PB, pH7.0) with a concentration of 0.1–0.2 mg/mL. CD spectra were measured on the Chirascan Plus spectropolarimeter v.4.4.0 (Applied Photophysics Ltd, UK) by using a quartz cell of 1.0 mm thickness. The wavelengths used ranged from 190 to 260 nm. Data were collected at 1 nm intervals with a scan rate of 0.5 s per point and expressed as delta epsilon (cm^-1M^-1). Delta epsilon was calculated as [θ×(MRW×0.1)/(C×L)/3298], where θ is the ellipticity (in millidegrees), C is the concentration (in mg/mL), L is the path length (in cm), and MRW is the mean residue weight (in Da).
Fig. 4 Experiment data-guided structural model of DvirARP built by comparative modelling. (A) Comparison of CD spectra of reduced and oxidized DvirARP in 5 mM PB buffer (pH7.0). Signature bands for the presence of cation–π and 3_10-helix are denoted by arrows. (B) Thermal denaturation curves of the oxidized product at indicated temperatures. (C) Sequence comparison between DvirARP and the template MSL2 CXC (residues 542–559). Identical and conserved residues are shadowed in yellow and grey, respectively. Residues involved in cation–π interactions are underlined twice. The predicted secondary structure element and disulfide bridges are extracted from the experiment-based computational model. […] (E) The cation–π interaction on the DvirARP structure. […]

The test system of data set [4] is Bacillus megaterium CGMCC 1.0459.
Data set [5] concerns Micrococcus luteus CGMCC 1.0290.

Read-outs that look alike come from different tables or passages of the source. Positions of bridges follow the written chain, without caps; N, C: chain ends. Residues, ends and D or L forms follow the SMILES beside them.

On to `CC[C@H](C)[C@H](NC(=O)[C@H](C)NC(=O)[C@H](CC(N)=O)NC(=O)[C@H](CCCNC(=N)N)NC(=O)[C@H](C)NC(=O)[C@H](CCCNC(=N)N)NC(=O)[C@H](CCCNC(=N)N)NC(=O)[C@H](Cc1ccc(O)cc1)NC(=O)[C@@H]1CSSC[C@H](NC(=O)[C@@H](NC(=O)[C@H](C)N)C(C)C)C(=O)N[C@@H](CCCNC(=N)N)C(=O)N1)C(=O)N[C@H](C(=O)N[C@H]1CSSC[C@@H](C(=O)N[C@@H](CCCNC(=N)N)C(=O)O)NC(=O)[C@H](Cc2ccc(O)cc2)NC1=O)C(C)C` [DvirARP] (H-AVCRCYRRARNAIVCYCR-OH; disulfide 3-5, 15-17; N-terminus and C-terminus assumed), for which the “Antibacterial activity in inhibition zone assay against S. aureus CGMCC 1.89” value in data set [1] (peptide dissolved in 50% haemolymph serum from DvWT female adults), in data set [1] (peptide dissolved in 50% haemolymph serum from DvdelARP female adults) and in data set [1] (peptide dissolved in insect saline (pH 7.2)) was “no detectable antibacterial activity” each time. Also, the “Binding of S15 DNA fragment (EMSA)” value in data set [2] is given as “not able to bind”. For the same molecule, the “CD signature band around 230 nm (cation–π interaction) with temperature” value in data set [3] is “decreased with the temperature increase”. For the same molecule, the “CD signature band at 206 nm (3_10-helix) with temperature” value in data set [3] was “overall retained”. Moreover, the “Lethal concentration CL” value in data set [4] (Bacillus CGMCC 1.0459, pH 7) was 17.68 µM; in data set [4] (inhibition-zone assay, 0.8% agar, 2 µL peptide per 2-mm well, peptide in 5 mM PB pH 7.0, overnight, Bacillus megaterium CGMCC 1.0459), more than 10 µM; in data set [5] (CGMCC 1.0290, pH 7), 10.77 µM; in data set [5] (inhibition-zone assay, 0.8% agar, 2 µL peptide per 2-mm well, peptide in 5 mM PB pH 7.0, overnight, Micrococcus luteus CGMCC 1.0290), more than 10 µM.

(Values after publication PMC11116330, “The evolutionary novelty of insect defensins: from bacterial killing to toxin neutralization” (Cellular and Molecular Life Sciences: CMLS, 2024).)
